Measured values published in US4980349A, “Sulphonamides derived from diarylmethanes, the processes for preparing them and pharmaceutical compositions containing them” (SANOFI, priority 1986, dated 1990).
Where two headings read alike, the source gives them in different places.

How the values were obtained:
[1] = tested on: rat hind foot kaolin-induced oedema; assay: Kaolin-induced arthritis test, first experiment (decrease in inflammation, foot volume); format: in vivo; details: 1 h before kaolin, Table IX, read-out: percentage decrease in the inflammation
How it was run: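 Kaolin (0.05 ml of sterile 10% suspension) injected into metatarsal flexor sheath of rat hind foot; compounds given orally by stomach tube 1 h before. Foot volume measured by plethysmometer during early oedema (maximal 4–6 h). Value is % decrease in inflammation versus controls, mean of 10 animals per dose.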

thromboxane synthetase [2] = assay: TXB2 production in human platelet suspension (thromboxane synthetase); format: cell-based; details: human platelets, arachidonic acid 5 μg/ml, 37° C., read-out: IC50, inhibition of the production of TXB2
Protocol: The platelets are incubated with arachidonic acid (5 μg/ml) in the presence of increasing doses of test products (10^-6l M to 5×10^-5 M). Platelets stimulated by arachidonic acid (AA) manufacture a large amount of thromboxane A2 (TXA2), which can be measured radioimmunologically in the form of a stable metabolite TXB2.
The assay of the amount of TXB2 in the medium is performed after a 1- to 15- minute incubation at 37° C., the measurements being made in comparison with a control suspension which has not been incubated with the test products.
Results: These are expressed as IC50, that is to say as the concentration of the test product which permits 50% inhibition of the production of TXB2.

thromboxane synthetase [3] = assay: TXB2 production in human glomeruli (renal preparation model); format: cell-based; details: arachidonic acid 5 ug/ml
Protocol: (§1) Human glomeruli synthesize both thromboxanes, via thromboxane synthetase, and prostaglandins, via prostacyclin synthetase. The experiment consists in stimulating glomerular cells with arachidonic acid (5 ug/ml) and in assaying radioimmunologically the amount of thromboxane B2 (TXB2) and prostacyclin (PGI2) produced in the presence of increasing concentrations of test products (10^-6 M to 5×10^-5 M).
(§2) As for the previous model, the results are expressed as IC50 in comparison with a control suspension.

prostacyclin synthetase = assay: PGI2 production in human glomeruli (renal preparation model); format: cell-based; details: arachidonic acid 5 ug/ml
Protocol: as §1, §2

[4] = tested on: biosynthesis of leukotrienes B4 (LTB4), human polymorphonuclear leukocytes; assay: Biosynthesis of LTB4, isomers and oxidized metabolites in human polymorphonuclear leukocytes; format: cell-based; details: Leukocyte
How it was run: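 Human polymorphonuclear leukocytes (5×10^6, used within 6 h of blood draw) preincubated 10 min at 37° C. with test product at 40 μM in DMSO, stimulated with 10 μM ionophore A 23187 in PBS pH 7.4. LTB4, its isomers and oxidized metabolites quantified by HPLC at 269 nm against PGB2 internal standard, as % inhibition or % increase.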

Oral LD50 in rats = details: rat, in vivo, male Wistar rats, 200-400 g, 14 days observation, read-out: approximate oral LD50
Protocol: (§3) The compounds were suspended in a 3% strength solution of gum arabic so as to supply, in a volume of 2 ml for the rats, the equivalent of 50, 100, 200, 400 and 800 mg/kg, and, in a volume of 1 ml for the mice, 100, 200, 400, 800 and 1,600 mg/kg and, for 1573 and 1579, 3,200 mg/kg.
(§4) Gavage was performed by means of a metal tube, on batches of 5 animals for each series.
(§5) The animals were observed daily for 14 days.

Oral LD50 in mice = details: mouse, in vivo, female Swiss CF mice, 20 g, 14 days observation, read-out: approximate oral LD50
Protocol: as §3, §4, §5

5-lipoxygenase = assay: Production of LTB4 and 5-HETE by human leukocytes incubated with arachidonic acid; format: cell-based; details: ionophore A 23187 5 μM, arachidonic acid 10 μg/ml
Protocol: Human polymorphonuclear leukocytes suspended with arachidonic acid and stimulated by calcium ionophore produce leukotrienes B4 (LTB4).
The test consists in incubating fresh human leukocytes with arachidonic acid at a dose of 10 μg/ml to which a tracer dose of tritium-labelled arachidonic acid has been added. The leukocytes are stimulated with calcium ionophore A 23187 (Calbiochem, 5 μM) and the amount of 5-hydroxyeicosatetraenoic acid (5-HETE) and LTB4 produced is then assayed by HPLC.
5-HETE is the metabolite produced from arachidonic acid by 5-lipoxygenase, and from which LTB4 is produced by the action of an isomerase.
The results are expressed as an integration of the surface of the peak obtained in HPLC by comparison with that obtained with control leukocytes which have not been incubated with the test products.
The results in brackets are expressed as a percentage inhibition of the production of 5-HETE and LTB4.

[5] = first experiment, read-out: Isomers of LTB4: percentage inhibition (+ : percentage increase in the production)
[6] = first experiment, read-out: LTB4: percentage inhibition (+ : percentage increase in the production)
[7] = first experiment, read-out: Oxidized metabolites of LTB4: percentage inhibition (+ : percentage increase in the production)
[8] = second experiment, read-out: Percentage inhibition of LTB4 formation

SMILES | change in vivo at 25 mg/kg ([1]; 25 mg/kg oral) [%] | change in vivo at 50 mg/kg ([1]; 50 mg/kg oral) [%] | change in vivo at 100 mg/kg ([1]; 100 mg/kg oral) [%] | IC50 (thromboxane synthetase [2]) [µM] | IC50 (thromboxane synthetase [3]) [µM] | IC50 (prostacyclin synthetase) [µM] | inhibition at 40 µM [4, 5] [%] | inhibition at 40 µM [4, 6] [%] | inhibition at 40 µM [4, 7] [%] | LD50 at 336 h (Oral LD50 in rats) [mg/kg] | LD50 at 336 h (Oral LD50 in mice) [mg/kg] | inhibition at 40 µM [4, 8] [%] | 5-HETE, integration of the surface of the HPLC peak (5-lipoxygenase) | percentage inhibition of the production of 5-HETE (in brackets) (5-lipoxygenase) [%] | percentage inhibition of the production of LTB4 (in brackets) (5-lipoxygenase) [%] | LTB4, integration of the surface of the HPLC peak (5-lipoxygenase)
O=C(O)CCCCCCCCCCNS(=O)(=O)c1ccc(Cl)cc1C(=O)c1ccccc1 [Compound 1572, 11-(2-benzoyl-4-chlorobenzenesulphonamido)undecanoic acid] | -17 | -26 | -50 | 12 | 7 | 100 | 100 | 84 | 90 | > 800 | > 1600 | – | – | – | – | –
O=C(O)CCCCCCCCCCNS(=O)(=O)c1ccc(Cl)cc1C(=O)c1ccccc1Cl [Compound 1574, 11-[2-(2-chlorobenzoyl)-4-chlorobenzenesulphonamido]undecanoic acid] | – | – | – | 8 | 5 | 100 | 100 | 95 | 100 | – | > 1600 | 95 | – | – | – | –
O=C(O)CCCCCCCCCCCNS(=O)(=O)c1ccc(Cl)c(C(=O)c2ccccc2)c1 [Compound 1736, 12-(3-benzoyl-4-chlorobenzenesulphonamido)dodecanoic acid] | – | – | – | 6.2 | 2.6 | > 50 | – | – | – | – | – | 100 | 384 | 89.6 | 100 | –
O=C(O)CCCCCCCCCCNS(=O)(=O)c1ccc(Cl)cc1C(O)c1ccccc1Cl (stereo not drawn) [Compound 1796] | – | – | – | 7.8 | 3.2 | 50 | – | – | – | – | – | 100 | 127 | – | – | 152
O=C(O)CCCCCCCCCCNS(=O)(=O)c1ccc(Cl)cc1Cc1ccccc1Cl [Compound 1797] | – | – | – | 5 | 4.4 | > 50 | – | – | – | – | – | 100 | – | – | – | –
